The test system of this assay is stored potato tubers (Solanum tuberosum, variety: Columbia). Briefly: Visual assessment of sprout development on stored potato tubers after spray application on a roller table. In kind it is in vivo. The protocol:
Application was done on a roller table and were applied with a spray application covering the outside of the tubers homogeneously with the spray solution containing with the respective dose of compound of formula (I) and depending on the treatment with the additional MSO (methylated seed oil) as indicated in the following tables. The spray solutions were prepared to match an equivalent of 10 L water per ton potato.

Experimental findings from patent US20250057164A1, “USE OF ISOXAZOLINECARBOXAMIDE FOR SPROUT INHIBITION” (BAYER AKTIENGESELLSCHAFT, priority 2021, published 2025) are described below.

For `C=C[C@]1(C(=O)N[C@H]2CO[C@@H](C(=O)OC)C2)CC(c2cc(F)cc(F)c2)=NO1` (relative stereo) [compound of formula (I), methyl(2R*,4R*)-4-[[(5S)-3-(3,5-difluorophenyl)-5-vinyl-4H-isoxazole-5-carbonyl]amino]tetrahydrofuran-2-carboxylate], the “Relative inhibition of potato sprouting” value reads like this: (0.2 g/to, MSO 0.5 L/to, SC 200, 0 DAA) 0%; (0.2 g/to, MSO 0.5 L/to, SC 200, 71 DAA) 67%; (2 g/to, MSO 0.5 L/to, SC 200, 0 DAA) 0%; (2 g/to, MSO 0.5 L/to, SC 200, 71 DAA) 73%; (2 g/to, no MSO, SC 200, 0 DAA) 0%; (2 g/to, no MSO, SC 200, 28 DAA) 30%. For the same compound, the “Relative inhibition of potato sprouting” value reads like this: (2 g/to, no MSO, SC 200, 71 DAA) 18%; (20 g/to, MSO 0.5 L/to, SC 200, 0 DAA) 0%; (20 g/to, MSO 0.5 L/to, SC 200, 71 DAA) 93%; (20 g/to, no MSO, SC 200, 0 DAA) 0%; (20 g/to, no MSO, SC 200, 28 DAA) 45%; (20 g/to, no MSO, SC 200, 71 DAA) 30%. Also, the “Relative inhibition of potato sprouting” value reads like this: (200 g/to, MSO 0.5 L/to, SC 200, 0 DAA) 0%; (200 g/to, MSO 0.5 L/to, SC 200, 71 DAA) 95%.
